Test [1] concerns NCI-H358 cells (express KRas G12C), Phospho-ERK. Description: Cellular inhibition of KRas G12C: Phospho-ERK in NCI-H358 cells. The format is cell-based. The note with it: pERK(Thr202/Tyr204) normalized with GAPDH, NCI-H358 cells, 3 hours, read-out: IC50. The gist of the method: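 IC50 derived by 4-parameter fit of GAPDH-normalized pERK(Thr202/Tyr204) signal, as percent of DMSO control. Signal came from in-cell immunodetection with infrared secondaries after 3 h compound exposure of KRas G12C NCI-H358 cells at 0.5% DMSO.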

In a further test the target is KRas G12C (Homo sapiens, UniProt P01116, C118S/C51S/C80L/G12C). Description: KRas G12C Modification Assay (LCMS detection of covalent adduct). The format is binding. Particulars: normalized percent of control; tested at 5 μM concentration for 3 hours. The gist of the method: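 Cys-light KRas G12C mutant protein incubated with compound in K-Ras assay buffer, reactions quenched at set time points with 25 mM acetic acid and analysed by intact-protein LC/MS on a C-3 column. Deconvoluted mass heights expressed as percent of control (POC) relative to compound-free protein.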

Like-named read-outs stand apart in the source and are kept apart here. Some results are limits rather than exact numbers.

Broadly, the IC50 is the point on the concentration scale where inhibition reaches its midpoint. For `C=CC(=O)N1CCN(c2nc(OC[C@@H]3CCCN3C)nc3c2CCN(c2c(F)cccc2C(F)(F)F)C3)CC1CC#N` (stereo partly drawn) [Example 411, 2-(1-acryloyl-4-(7-(2-fluoro-6-(trifluoromethyl)phenyl)-2-(((S)-1-methylpyrrolidin-2-yl)methoxy)-5,6,7,8-tetrahydropyrido[3,4-d]pyrimidin-4-yl)piperazin-2-yl)acetonitrile], in test [1], the IC50 lay within 0.0001 to 1 µM. Also, on KRas G12C, the POC result is “C (“C”>50% POC)”.

In the case of `C=CC(=O)N1CCN(c2nc(OC[C@@H]3CCCN3C)nc3c2CCN(c2ccc(F)cc2C(F)(F)F)C3)CC1CC#N` (stereo partly drawn) [Example 412, 2-(1-acryloyl-4-(7-(4-fluoro-2-(trifluoromethyl)phenyl)-2-(((S)-1-methylpyrrolidin-2-yl)methoxy)-5,6,7,8-tetrahydropyrido[3,4-d]pyrimidin-4-yl)piperazin-2-yl)acetonitrile], in test [1], the IC50 was 0.0001 to 1 µM. Further, the POC entry at KRas G12C is on record as “C (“C”>50% POC)”.

For the compound `C=CC(=O)N1CCN(c2nc(OC[C@@H]3CCCN3C)nc3c2CCN(c2cccc(Cl)c2C(F)(F)F)C3)CC1CC#N` (stereo partly drawn) [Example 413, 2-(1-acryloyl-4-(7-(3-chloro-2-(trifluoromethyl)phenyl)-2-(((S)-1-methylpyrrolidin-2-yl)methoxy)-5,6,7,8-tetrahydropyrido[3,4-d]pyrimidin-4-yl)piperazin-2-yl)acetonitrile], the IC50 in test [1] is 0.0001 to 1 µM. Besides, the POC entry on KRas G12C is given as “C (“C”>50% POC)”.

Take `C=CC(=O)N1CCN(c2nc(OC[C@H]3C[C@H](O)CN3C)nc3c2CCN(c2cccc(F)c2C(F)(F)F)C3)CC1CC#N` (stereo partly drawn) [Example 414, 2-(1-acryloyl-4-(7-(3-fluoro-2-(trifluoromethyl)phenyl)-2-(((2R,4S)-4-hydroxy-1-methylpyrrolidin-2-yl)methoxy)-5,6,7,8-tetrahydropyrido[3,4-d]pyrimidin-4-yl)piperazin-2-yl)acetonitrile]: the IC50 in test [1] (Homo sapiens, NCI-H358, 3 h) fell in the range of 0.0001 to 1 µM. Besides, the POC entry on KRas G12C is “C (“C”>50% POC)”.

As for `C=CC(=O)N1CCN(c2nc(OC[C@H]3C[C@@H](O)CN3C)nc3c2CCN(c2cccc(F)c2C(F)(F)F)C3)CC1CC#N` (stereo partly drawn) [Example 415, 2-(1-acryloyl-4-(7-(3-fluoro-2-(trifluoromethyl)phenyl)-2-(((2R,4R)-4-hydroxy-1-methylpyrrolidin-2-yl)methoxy)-5,6,7,8-tetrahydropyrido[3,4-d]pyrimidin-4-yl)piperazin-2-yl)acetonitrile], in test [1] (Homo sapiens, NCI-H358, 3 h), the IC50 is 0.0001 to 1 µM. Also, at KRas G12C, the POC entry is reported as “C (“C”>50% POC)”.

With `C=CC(=O)N1CCN(c2nc(OC[C@H]3C[C@H](F)CN3C)nc3c2CCN(c2cccc(F)c2C(F)(F)F)C3)CC1CC#N` (stereo partly drawn) [Example 416, 2-(1-acryloyl-4-(2-(((2R,4S)-4-fluoro-1-methylpyrrolidin-2-yl)methoxy)-7-(3-fluoro-2-(trifluoromethyl)phenyl)-5,6,7,8-tetrahydropyrido[3,4-d]pyrimidin-4-yl)piperazin-2-yl)acetonitrile], the concentration for half-maximal inhibition (IC50) in test [1] (Homo sapiens, NCI-H358, 3 h) was in the range of 0.0001 to 1 µM. For the same compound, the POC entry at KRas G12C is “C (“C”>50% POC)”.

For the compound `C=CC(=O)N1CCN(c2nc(OC[C@@]3(C)CCCN3C)nc3c2CCN(c2cccc(F)c2C(F)(F)F)C3)CC1CC#N` (stereo partly drawn) [Example 417, 2-(1-acryloyl-4-(2-(((R)-1,2-dimethylpyrrolidin-2-yl)methoxy)-7-(3-fluoro-2-(trifluoromethyl)phenyl)-5,6,7,8-tetrahydropyrido[3,4-d]pyrimidin-4-yl)piperazin-2-yl)acetonitrile], the IC50 in test [1] (Homo sapiens) fell in the range of 0.0001 to 1 µM. Further, the POC result on KRas G12C is “C (“C”>50% POC)”.

Consider `C=CC(=O)N1CCN(c2nc(OC[C@@H]3C[C@H](O)CN3C)nc3c2CCN(c2cccc4ccccc24)C3)CC1CC#N` (stereo partly drawn) [Example 418, 2-(1-acryloyl-4-(2-(((2S,4S)-4-hydroxy-1-methylpyrrolidin-2-yl)methoxy)-7-(naphthalen-1-yl)-5,6,7,8-tetrahydropyrido[3,4-d]pyrimidin-4-yl)piperazin-2-yl)acetonitrile], for which, in test [1] (Homo sapiens, NCI-H358, 3 h), the IC50 was in the range of 0.0001 to 1 µM. At KRas G12C, the POC entry is recorded as “C (“C”>50% POC)”.

As to `C=CC(=O)N1CCN(c2nc(OC[C@@H]3CCCN3C)nc3c2CCN(c2cccc(Cl)c2C)C3)C[C@@H]1CC#N` [Example 419, 2-((S)-1-acryloyl-4-(7-(3-chloro-2-methylphenyl)-2-(((S)-1-methylpyrrolidin-2-yl)methoxy)-5,6,7,8-tetrahydropyrido[3,4-d]pyrimidin-4-yl)piperazin-2-yl)acetonitrile], the IC50 in test [1] (Homo sapiens, NCI-H358, 3 h) lay within 0.0001 to 1 µM. In addition, the POC result on KRas G12C is on record as “C (“C”>50% POC)”.

With `C=CC(=O)N1CCN(c2nc(OC[C@@H]3CCCN3C)nc3c2CCN(c2cccc(Cl)c2Cl)C3)C[C@@H]1CC#N` [Example 420, 2-((S)-1-acryloyl-4-(7-(2,3-dichlorophenyl)-2-(((S)-1-methylpyrrolidin-2-yl)methoxy)-5,6,7,8-tetrahydropyrido[3,4-d]pyrimidin-4-yl)piperazin-2-yl)acetonitrile], in test [1] (Homo sapiens, NCI-H358, 3 h), the IC50 lay in the range of 0.0001 to 1 µM. Besides, the POC entry at KRas G12C is “C (“C”>50% POC)”.

Consider `C=CC(=O)N1CCN(c2nc(OC[C@@H]3CCCN3C)nc3c2CCN(c2cccc(Cl)c2OC)C3)C[C@@H]1CC#N` [Example 421, 2-((S)-1-acryloyl-4-(7-(3-chloro-2-methoxyphenyl)-2-(((S)-1-methylpyrrolidin-2-yl)methoxy)-5,6,7,8-tetrahydropyrido[3,4-d]pyrimidin-4-yl)piperazin-2-yl)acetonitrile], for which, in test [1] (Homo sapiens, NCI-H358, 3 h), the IC50 lay in the range of 0.0001 to 1 µM. Also, the POC result on KRas G12C is “C (“C”>50% POC)”.

In the case of `CN(C)C/C=C/C(=O)N1CCN(c2nc(OC[C@H]3CCCN3C)nc3c2CCN(c2cccc(Cl)c2C(F)(F)F)C3)C[C@@H]1CC#N` [Example 422, 2-((S)-4-(7-(3-chloro-2-(trifluoromethyl)phenyl)-2-(((R)-1-methylpyrrolidin-2-yl)methoxy)-5,6,7,8-tetrahydropyrido[3,4-d]pyrimidin-4-yl)-1-((E)-4-(dimethylamino)but-2-enoyl)piperazin-2-yl)acetonitrile], the IC50 in test [1] (Homo sapiens, NCI-H358, 3 h) was 0.0001 to 1 µM. Moreover, the POC entry on KRas G12C is “C (“C”>50% POC)”.

For `C=CC(=O)N1CCN(c2nc(OC[C@@H]3CCCN3C)nc3c2CCN(c2ccc(F)c(C)c2C)C3)C[C@@H]1CC#N` [Example 423, 2-((S)-1-acryloyl-4-(7-(4-fluoro-2,3-dimethylphenyl)-2-(((S)-1-methylpyrrolidin-2-yl)methoxy)-5,6,7,8-tetrahydropyrido[3,4-d]pyrimidin-4-yl)piperazin-2-yl)acetonitrile], in test [1] (Homo sapiens, NCI-H358, 3 h), the IC50 was 0.0001 to 1 µM. Further, the POC result on KRas G12C is listed as “C (“C”>50% POC)”.

In the case of `C=CC(=O)N1CCN(c2nc(OC[C@@H]3CCCN3C)nc3c2CCN(c2cccc(C)c2Cl)C3)C[C@@H]1CC#N` [Example 424, 2-((S)-1-acryloyl-4-(7-(2-chloro-3-methylphenyl)-2-(((S)-1-methylpyrrolidin-2-yl)methoxy)-5,6,7,8-tetrahydropyrido[3,4-d]pyrimidin-4-yl)piperazin-2-yl)acetonitrile], the IC50 in test [1] (Homo sapiens, NCI-H358, 3 h) fell in the range of 0.0001 to 1 µM. The POC result on KRas G12C is given as “C (“C”>50% POC)”.

For `C=CC(=O)N1CCN(c2nc(OC[C@@H]3C[C@@H](O)CN3C)nc3c2CCN(c2cccc(Cl)c2C(F)(F)F)C3)C[C@@H]1CC#N` [Example 425, 2-((S)-1-acryloyl-4-(7-(3-chloro-2-(trifluoromethyl)phenyl)-2-(((2S,4R)-4-hydroxy-1-methylpyrrolidin-2-yl)methoxy)-5,6,7,8-tetrahydropyrido[3,4-d]pyrimidin-4-yl)piperazin-2-yl)acetonitrile], the IC50 in test [1] (Homo sapiens, NCI-H358, 3 h) lay in the range of 0.0001 to 1 µM. Moreover, the POC entry on KRas G12C was “C (“C”>50% POC)”.

As for `CN(C)C/C=C/C(=O)N1CCN(c2nc(OC[C@@H]3CCCN3C)nc3c2CCN(c2cccc(Cl)c2C(F)(F)F)C3)C[C@@H]1CC#N` [Example 426, 2-((S)-4-(7-(3-chloro-2-(trifluoromethyl)phenyl)-2-(((S)-1-methylpyrrolidin-2-yl)methoxy)-5,6,7,8-tetrahydropyrido[3,4-d]pyrimidin-4-yl)-1-((E)-4-(dimethylamino)but-2-enoyl)piperazin-2-yl)acetonitrile], in test [1] (Homo sapiens, NCI-H358, 3 h), the IC50 is 0.0001 to 1 µM. Also, the POC entry on KRas G12C was “C (“C”>50% POC)”.

Consider `C=CC(=O)N1CCN(c2nc(OC[C@@H]3CCCN3C)nc3c2CCN(c2cccc(Cl)c2C(F)(F)F)C3)C[C@@H]1CC#N` [Example 427, 2-((S)-1-acryloyl-4-(7-(3-chloro-2-(trifluoromethyl)phenyl)-2-(((S)-1-methylpyrrolidin-2-yl)methoxy)-5,6,7,8-tetrahydropyrido[3,4-d]pyrimidin-4-yl)piperazin-2-yl)acetonitrile], for which the IC50 in test [1] (Homo sapiens, NCI-H358, 3 h) fell in the range of 0.0001 to 1 µM. The POC result on KRas G12C is on record as “C (“C”>50% POC)”.

Regarding `C=CC(=O)N1CCN(c2nc(OC[C@@H]3CCCN3C)nc3c2CCN(c2cccc4ccccc24)C3)CC1COC` (stereo partly drawn) [Example 428, 1-(2-(methoxymethyl)-4-(2-(((S)-1-methylpyrrolidin-2-yl)methoxy)-7-(naphthalen-1-yl)-5,6,7,8-tetrahydropyrido[3,4-d]pyrimidin-4-yl)piperazin-1-yl)prop-2-en-1-one], the concentration for half-maximal inhibition (IC50) in test [1] was greater than 1 µM. The POC result on KRas G12C is reported as “C (“C”>50% POC)”.

For the compound `C=CC(=O)N1CCN(c2nc(OC[C@@H]3CCCN3C)nc3c2CCN(c2cccc4ccncc24)C3)C[C@@H]1CC#N` [Example 429, 2-((S)-1-acryloyl-4-(7-(isoquinolin-8-yl)-2-(((S)-1-methylpyrrolidin-2-yl)methoxy)-5,6,7,8-tetrahydropyrido[3,4-d]pyrimidin-4-yl)piperazin-2-yl)acetonitrile], the IC50 in test [1] (Homo sapiens, NCI-H358, 3 h) lay in the range of 0.0001 to 1 µM. For the same compound, the POC result at KRas G12C was “C (“C”>50% POC)”.

(Values after US10125134B2 (Mirati Therapeutics, Inc., priority 2016, dated 2018).)
